According to patent publication US6291199A, “Human phosphodiesterase type IVC, and its production and use” (Celltech Therapeutics Limited, priority 1994, dated 2001):
pIC50: −log10 of the molar value. Where two headings read alike, the source gives them in different places.

Tests used:
[1] = test system: PDE IV A; details: read-out: IC50 for rolipram inhibition; literature; cited from earlier work
[2] = test system: PDE IV D; details: read-out: IC50 for rolipram inhibition; literature; cited from earlier work
[3] = test system: PDE IV B; details: read-out: IC50 for rolipram inhibition; literature; cited from earlier work
[4] = test system: recombinant PDE IV; details: Torphy et al. 1992; cited from earlier work
[5] = test system: PDE IVA; details: in situ, CHO + beta 2 adrenergic receptor + PDE IVA, 10 uM inhibitor
Method: Transfected cells were harvested with non-enzymatic cell dissociation reagent (Sigma) washed three times and re-suspended in Dulbecco's phosphate buffered saline containing 0.1% BSA and 0.1% glucose (DPBS+). The cells were incubated with 10 uM inhibitor (or solvent control, 0.1% DMSO) in DPBS+for 10 min at 37° C. The cell suspension was stimulated with isoproterenol (0.001-1 uM) for 2 min. The cells were pelleted at 12000 g and resuspended in 400 uL of boiling assay buffer 1s (DuPont cAMP measurement kit). The samples were heated in a boiling water bath for 10 min and frozen before being assayed for cAMP using a commercial cAMP radioimmunoassay (DuPont).

[6] = test system: PDE IVA; experiment: Inhibition of recombinant human PDE IVA (cAMP hydrolysis); type: biochemical; details: enzyme from CHO cell lysates
[7] = test system: HL60 cells; experiment: RT.PCR of PDE IV isoform mRNAs in Bt2 cAMP stimulated HL60 cells; type: cell-based, human; details: HL-60 cells
Method: (§1) To identify a source of gene C mRNA, a number of cell lines were assayed for isoform mRNAs by reverse transcription coupled to polymerase chain reaction (RT.PCR). Total RNA was prepared using RNAzol (Biogenesis) and polyA+ mRNA selected by affinity chromatography using oligodT cellulose. 50 ng of first strand cDNA prepared by reverse transcriptase was amplified with the following pairs of gene specific primers for 40 cycles using the conditions, 94° C. 1 min, 55° C. 1 min, 72° C. 3 min.
(§2) The results of RT.PCR using the human gene primers to detect isoform mRNAs in both human tissue culture cells and rat tissues confirms that PDE IV mRNAs are widely distributed though the apparent levels of each isoform mRNA varies. Gene C mRNA appears to be more abundant than A,B, or D in cells derived from dorsal root ganglia and testes in rat. This latter result is consistent with data reported previously by Swinnen et al. (1989) ibid.

[8] = test system: SKNSH cells; experiment: RT.PCR of PDE IV isoform mRNAs in Bt2 cAMP stimulated SKNSH cells; type: cell-based, human; details: SKN.SH cells
Method: as §1, §2

[9] = test system: binding sites in the rodent forebrain tissue; details: Schmiechen et al.; Kaulen et al. 1989; cited from earlier work
[10] = test system: T lymphocytes; details: relative to other enantiomer; Sommer et al. 1995; cited from earlier work
[11] = test system: PDE IVA; experiment: Inhibition of recombinant human PDE IVA (cAMP hydrolysis); type: biochemical
Method: Isolation of cDNA Clones for Gene A
A partial cDNA for gene A was isolated by PCR from a cDNA library prepared from PMA stimulated U937 cells using published sequence information (Livi G. et al. (1990) ibid)). Subsequently a conserved region probe form this cDNA was used to isolate a full length cDNA clone from a human frontal cortex cDNA library by hybridisation and washing at moderate stringency (final wash 2×SSC, 0.5% SDS at 60° C.).
The full length gene for PDE IVA was introduced into pEE7 and pYES vectors for expression in COS and yeast cells respectively.
Recombinant PDE IV enzymes were produced in COS cells by transient expression as described by Whittle N. et al. [(1987) Prot. Engineering 1 499-505]. Briefly […] cells/ml were transfected with 10 ug of plasmid. After 3 days in culture cells were washed with PBS and lysed by brief sonciation in 50 mM TES buffer, pH 7.6, (N. tris[hydroxymethyl]methyl) 2-aminoethane sulphonic acid containing proteases inhibitors (50 uM leupeptin, 1 uM pepstatin, 1 um phenylmethylsulphonylfluoride, 2 uM benzamidine). The cell homogenate was centrifuged ×12000 g for 10 min. and assayed for PDE IV activity.
For expression of PDE IVA and C in yeast cells, the two genes were inserted into the vector pYES (InVitrogen) as either Hind3/Xba1 (gene A) or EcoR1 (gene C) fragments isolated from pDEFC17 and pDEU7 vectors respectively. The resulting plasmids were designated as pDEFC 32 and pDEU8 respectively. Yeast cells (B7542: alpha, ura-3,trp1+, Leu2delta, pep4: His3, prBdelta 1.6R can 1, gal) were transformed with pDEFC32 and pDEU8 vectors using the lithium acetate method (Ito H. et al. (1983) J.Bacteriol. 51 163-168). Ura3 positive prototrophs were isolated and grown at 30° C. to an OD600 =1.0 in minimal media containing 2% glucose and […] leucine. Cells were recovered by centrifugation, washed and resuspended at OD600 =0.5 in minimal media containing 2% galactose to induce PDE IV expression. At an OD600 =1.0 cells were harvested, washed and broken in TES buffer plus proteases (see above) by milling with glass beads (425-600 um) at 4° C. The homogenate was clarified by centrifugation at 100,000 g for 30 mins at 4° C.
Enzyme reactions were carried out at pH 7.6 in 50 mM TES buffer containing 10 mM MgCl2, 3',5' cAMP (0.1 uM ^3 H-labelled 0.74-1.1 TBq/mmol) 5'AMP (2.5 uM ^14 C, 1.85-2.2 GBq/mmol) for 30 min at 30° C. Sufficient enzyme preparation was added to hydrolyse not more than 20% of substrate under these conditions. […] Reactions were stopped by rapid inactivation of enzyme by addition of trifluoroacetic acid to a final concentration of 1%. Substrate and product of reaction were separated as described by Smith et al. [(1993) Analyt. Biochem. 214 355-357] and the [^3 H] 5'AMP product analysed by scintillation counting. Correction for losses of [^3 H] […] during separation was made by reference to [^14 C] 5'AMP included in the reaction mixture.

[12] = test system: beta 2 adrenergic receptor; details: CHO cells expressing human beta2 adrenergic receptor; isoproterenol 0.001-1 uM, 2 min
From the text: Isolation of Human Beta 2 Adrenergic Receptor Gene.
The human beta 2 adrenergic receptor gene (Kobilka B. et al. (1987) J.Biol. Chem. 262 7321-7327) was isolated from HL-60 cells genomic DNA by PCR using the following primers: […]
The plasmid was named pRO1 44.

[13] = test system: asthma; details: in vivo; cited from earlier work

COc1ccc(C2CNC(=O)C2)cc1OC1CCCC1 (racemic) [Rolipram]
pIC50 [1]: 6.30 to 6.70 | pIC50 [2]: 6.30 to 6.70 | pIC50 [3]: 6.30 to 6.70 | high affinity binding of rolipram, in words [4]: stereoselectivity for high affinity binding | reversal by rolipram of the prevention of cAMP accumulation, in words [5]: reversed | pIC50 [6]: 6.54

CCCC(=O)Nc1ncnc2c1ncn2[C@@H]1O[C@@H]2COP(=O)(O)O[C@H]2[C@H]1OC(=O)CCC [Bt2 CAMP]
levels of PDE IV isoform mRNAs, in words [7]: levels of C and D but not A and B are elevated | levels of PDE IV isoform mRNAs, in words [8]: levels of C and D but not A and B are elevated

COc1ccc([C@@H]2CNC(=O)C2)cc1OC1CCCC1 [R-rolipram]
affinity for binding sites over S-rolipram, in words [9]: higher affinity | effectiveness in suppression of TNF release [10]: approximately 50 times | pIC50 ([11]; enzyme from COS cells, read-out: IC50, PDE IVA): 6.53 | pIC50 ([11]; enzyme from yeast, read-out: IC50, Yeast, A): 6.53 | pIC50 [6]: 6.60

CC(C)NCC(O)c1ccc(O)c(O)c1 (stereo not drawn) [isopreterenol]
cAMP levels, in words [12]: dose-dependent increase in cAMP levels

Cn1c(=O)c2[nH]cnc2n(C)c1=O [theophylline]
effect in asthma, in words [13]: has been shown to have a therapeutic effect
